Common to all, as to assay type: cell-based
Test [1] concerns IL6. Description: inhibition of TNF-induced IL6 production. Particulars: for IC50: given as '50% at x μM', read-out: Inhibition of TNF-induced IL6 production: concentration giving 50% inhibition.
In test [2] the test system is MCP1. Briefly: inhibition of TNF-induced MCP1. The settings on record: for IC50: in vitro. The method, then: (§1) The activity of the compounds of the present invention in inhibiting glycated protein- and AGE-induced inflammation can be determined using the assays described herein and in U.S. patent application Ser. No. 10/026,335, which is herein incorporated in its entirety. Such assays comprise measurement of the specific activity of biological components involved in a known cellular response. The assays provide a measurable response in which the activity of the compounds is determined. One assay comprises measurement of the effects of compounds on an inflammatory response by cells to the presence of a stimulating agent. Yet another assay comprises endothelial cells that are stimulated by the addition of a glycated protein, the stimulating agent. The endothelial cells respond by producing specific cytokines. The amount of cytokines produced are determined by measurement protocols known to those skilled in the art. The compounds of the present invention are then added to the assay and the production of cytokines is measured. From the comparison of the assay without the compound with the assay with the compound, the biological effect of the compound can be determined. The compound may have an inhibitory effect, a stimulatory effect, or no effect at all.
The amount and type of cytokine produced can be determined using immunological methods, such as ELISA assays. The methods of the present invention are not limited by the type of assay used to measure the amount of cytokine produced, and any methods known to those skilled in the art and later developed can be used to measure the amount of cytokines produced in response to the stimulating agent and to the compound having unknown activity.
(§2) Assays for determining the activity of compounds capable of modulating inflammation include those taught in U.S. patent application Ser. No. 10/026,335 and 09/969,013, which are both expressly incorporated by reference. In general, once the baseline response to the stimulating agent for the production of cytokines by the endothelial cells is established, thus comprising the control levels for the screening assay, the methods comprise addition of compounds of the present invention. The effect of the compound on the baseline response is determined by comparing the amount of cytokine produced in the presence of the stimulating agent and the amount of cytokine produced in the presence of the stimulating agent and the compound of the present invention. In a preferred method, compounds that have inhibitory effects on the inflammation of the cells in the presence of glycated albumin are then used as therapeutic agents. One or more compounds may be added to the screening assay. Combinations or mixtures of compounds can be added. Different amounts and formulations of the compounds are added to determine the effects on the screening assay. The screening assay may also be used to determine stimulatory compounds or compounds that have no effects in the assay.

For test [3], the system named is VCAM1. Description: inhibition of TNF-induced VCAM1. Particulars: for IC50: in vitro. On the procedure:
as §1
An aspect of the present invention comprises methods and compositions for the treatment of diseases, preconditions or pathologies associated with inflammatory cytokines and other inflammation related molecules including, but not limited to IL-6, VCAM-1, AGE-induced MCP-1, (monocyte chemoattractant protein 1), heme oxygenase, insulin-like growth factor, selectins, IP-10, MIG and I-TAC, NF-κB, IL-1β (interleukin 1β), IL-11 (interleukin 11), m-CSF (macrophage colony stimulating factor), fibrinogen, TNF-α (tumor necrosis factor α), adhesion molecules, selecting, VCAM-1 (Vascular Cell Adhesion Molecule-1), CRP (C-reactive protein), and PAI-1 (plasminogen activator inhibitor-1). Examples of such diseases include the pathogenesis of atherosclerosis and the development of diabetic vasculopathy in type II diabetes. For example, affecting the activity or level of TNFα is a key mediator of tissue damage following acute or chronic inflammatory reactions. The present invention contemplates providing compositions and methods that modulate the effects of cytokines and inflammatory molecules such as TNFα, IL-6, VCAM-1, IP-10, MIG, I-TAC and AGE-induced MCP-1, and treat the associated diseases, acute or chronic conditions, preconditions and pathologies.
as §2

Structures can show the parent of a compound that is named as a salt.

Regarding `CCN1CCCC1CNc1nc(Nc2ccc(OCc3ccccc3)c(Cl)c2)nc(NC2CCCCCC2)n1` (stereo not drawn) [drawing 607, N-(4-Benzyloxy-3-chloro-phenyl)-N′-cyclo-heptyl-N″-(1-ethyl-pyrrolidin-2-yl-methyl)-[1,3,5]triazine-2,4,6-triamine], the IC50 in test [1] worked out at 1.1 µM. By inhibition is commonly meant the percentage by which the read-out fell short of the control. Take `COc1ccc(Oc2nc(Oc3ccc(OC)c(F)c3)nc(Oc3ccc(OC)c(F)c3)n2)cc1F` [drawing 608, 2,4,6-Tris-(3-fluoro-4-meth-oxy-phenoxy)-[1,3,5]triazine]: at 10 µM the inhibition in test [1] was 5%. Take `COc1ccc(Nc2nc(NCCCCCNC(=O)CCCCC3SCC4NC(=O)NC43)nc(NC3CCCCCC3)n2)cc1Cl` (stereo not drawn) [drawing 609, 5-(2-Oxo-hexahydro-thieno[3,4-d]imi-dazol-4-yl)-pentanoicacid {5-[4-(3-chloro-4-methoxy-phenylamino)-6-cycloheptylamino-[1,3,5]tri-azin-2-ylamino]-pentyl}-amide]: in test [1], the IC50 stood at 5 µM.

With `COc1ccc(Nc2nc(NC3CCCCCC3)nc(NC3CCN(C(=O)CCCCC4SCC5NC(=O)NC54)CC3)n2)cc1Cl` (stereo not drawn) [drawing 610], in test [1], the IC50 is 19 µM.

With `CN1CCC(N(C)c2nc(Nc3cccc(F)c3)nc(NC3CCCCCC3)n2)CC1` [drawing 612, N-Cyclo-heptyl-N′-(3-fluoro-phenyl)-N″-meth-yl-N″-(1-methyl-piperidin-4-yl)-[1,3,5]tri-azine-2,4,6-triamine], the IC50 in test [1] worked out at 3.2 µM.

Turning to `CCN1CCCC1CNc1nc(Nc2ccc(OC)c(F)c2)nc(N2CCN(CC(=O)N3CCCC3)CC2)n1` (stereo not drawn) [drawing 613, 2-{4-[4-[(1-Ethyl-pyrrolidin-2-ylmethyl)-amino]-6-(3-fluoro-4-meth-oxy-phenylamino)-[1,3,5tri-azin-2-yl]-pipera-zin-1-yl}-1-pyrrolidin-1-yl-eth-anone dihydrogen chloride salt], testing at 10 µM in test [1] gave an inhibition of 42%.

Take `COc1ccc(Nc2nc(NC3CCCCCC3)nc(OCC3CCCN3C)n2)cc1Cl` (stereo not drawn) [drawing 614]: the IC50 came out at 3 µM in test [2] and 2.5 µM in test [3].

As for `COc1ccc(Nc2nc(NC3CCCCCC3)nc(OC3CCN(C)CC3)n2)cc1Cl` [drawing 615], the IC50 in test [2] worked out at 4.3 µM; in test [3], 4.5 µM. With `COc1ccc(Nc2nc(NC3CCCCCC3)nc(OC3CCCN(C(C)=O)C3)n2)cc1Cl` (stereo not drawn) [drawing 617], the IC50 stood at 4.6 µM in test [2] and 5.2 µM in test [3]. Consider `COc1ccc(Nc2nc(NC3CCCCCC3)nc(Oc3ccc(C#CC(C)(C)O)cc3)n2)cc1Cl` [drawing 620], for which the IC50 amounted to 3.7 µM in test [2] and 7 µM in test [3]. In the case of `COc1ccc(Nc2nc(NC3CCCCCC3)nc(Oc3ccccc3C#CC(C)(C)O)n2)cc1Cl` [drawing 621], the IC50 in test [2] is 6.5 µM; in test [3] it was 7 µM.

As to `CCN1CCCC(Oc2nc(Nc3ccc(OC)c(Cl)c3)nc(NC3CCCCCC3)n2)C1` (stereo not drawn) [drawing 622], the figures for the IC50 in test [2] and in test [3] were 4.2 µM and 6 µM, respectively. For the compound `COc1ccc(Nc2nc(NC3CCCCCC3)nc(Oc3ccc(C=O)cc3)n2)cc1Cl` [drawing 623], the IC50 in test [2] turned out to be 6 µM; in test [3], 5.2 µM. For `COc1ccc(Nc2nc(NC(C)C)nc(Oc3ccc(C#CC(C)(C)O)cc3)n2)cc1Cl` [drawing 627], the IC50 in test [2] stood at 3 µM; in test [3], 5.7 µM. `COc1ccc(Nc2nc(NC3CCCCCC3)nc(Sc3c(Cl)cccc3Cl)n2)cc1Cl` [drawing 631]: the inhibition at 10 µM in test [2] (@ 10 uM concentration, read-out: TNF-induced MCP1, In-vitro % of inhibition) amounted to 11%; in test [3] (@ 10 uM concentration, read-out: TNF-induced VCAM1, In-vitro % of inhibition) it was 6%.

(Values after patent US7335770B2, “Triazine compounds and their analogs, compositions, and methods” (Reddy U5 Therapeutics, Inc., priority 2004, dated 2008).)
